MIC data for 15 compounds are collected here from ChEMBL document CHEMBL4184242, “Synthesis and antibacterial studies of teixobactin analogues with non-isostere substitution of enduracididine” (2018).

Converted amounts (≈) assume the structure as drawn. A value given as a limit tells only on which side of the number the result lay.

The test system of assay [1] is Staphylococcus aureus. Kind of assay: Antibacterial activity against methicillin-resistant Staphylococcus aureus isolate SA1114 by CLSI M100-S17 protocol based broth dilution method. It is filed as functional. On the technique in general: In broth dilution the organism is exposed to a series of concentrations in liquid medium.
Assay [2] deals with Staphylococcus aureus. Kind of assay: Antibacterial activity against methicillin-susceptible Staphylococcus aureus ATCC 29213 by CLSI M100-S17 protocol based broth dilution method. It is filed as functional.

In the case of `CCC[C@@H]1NC(=O)[C@H](C)NC(=O)[C@H](NC(=O)[C@H](CO)NC(=O)[C@@H](NC(=O)[C@H](NC(=O)[C@@H](CCC(N)=O)NC(=O)[C@H](CO)NC(=O)[C@@H](NC(=O)[C@@H](Cc2ccccc2)NC)[C@@H](C)CC)[C@H](C)CC)[C@@H](C)CC)[C@H](C)OC(=O)[C@H]([C@@H](C)CC)NC1=O`, the MIC with Staphylococcus aureus [1] is 1 to 2 µg/mL (≈ 0.842 to 1.68 µM); in the assay with Staphylococcus aureus [2] it was 0.25 µg/mL (≈ 0.211 µM).
In the same order, the values of `CC[C@@H](C)[C@@H](NC(=O)[C@@H](CCC(N)=O)NC(=O)[C@H](CO)NC(=O)[C@@H](NC(=O)[C@@H](Cc1ccccc1)NC)[C@@H](C)CC)C(=O)N[C@H](C(=O)N[C@@H](CO)C(=O)N[C@H]1C(=O)N[C@@H](C)C(=O)NCC(=O)N[C@@H]([C@@H](C)CC)C(=O)O[C@H]1C)[C@@H](C)CC` are 8 to 16 µg/mL (≈ 6.98 to 14 µM) and 2 µg/mL (≈ 1.75 µM).
In the same order, the values of `CC[C@@H](C)[C@@H](NC(=O)[C@@H](CCC(N)=O)NC(=O)[C@H](CO)NC(=O)[C@@H](NC(=O)[C@@H](Cc1ccccc1)NC)[C@@H](C)CC)C(=O)N[C@H](C(=O)N[C@@H](CO)C(=O)N[C@H]1C(=O)N[C@@H](C)C(=O)N[C@@H](Cc2ccc(O)cc2)C(=O)N[C@@H]([C@@H](C)CC)C(=O)O[C@H]1C)[C@@H](C)CC` are 8 µg/mL (≈ 6.39 µM) and 2 µg/mL (≈ 1.6 µM).
Turning to `CC[C@@H](C)[C@@H](NC(=O)[C@@H](CCC(N)=O)NC(=O)[C@H](CO)NC(=O)[C@@H](NC(=O)[C@@H](Cc1ccccc1)NC)[C@@H](C)CC)C(=O)N[C@H](C(=O)N[C@@H](CO)C(=O)N[C@H]1C(=O)N[C@@H](C)C(=O)N[C@@H]([C@@H](C)O)C(=O)N[C@@H]([C@@H](C)CC)C(=O)O[C@H]1C)[C@@H](C)CC`, the results for the minimum inhibitory concentration (MIC) in the assay on Staphylococcus aureus [1] and with Staphylococcus aureus [2] were 16 µg/mL (≈ 13.5 µM) and 8 µg/mL (≈ 6.73 µM), respectively.
For `CC[C@@H](C)[C@@H](NC(=O)[C@@H](CCC(N)=O)NC(=O)[C@H](CO)NC(=O)[C@@H](NC(=O)[C@@H](Cc1ccccc1)NC)[C@@H](C)CC)C(=O)N[C@H](C(=O)N[C@@H](CO)C(=O)N[C@H]1C(=O)N[C@@H](C)C(=O)N[C@@H](CCC(=O)O)C(=O)N[C@@H]([C@@H](C)CC)C(=O)O[C@H]1C)[C@@H](C)CC`, the minimal inhibitory concentration (MIC) against Staphylococcus aureus [1] and in the assay with Staphylococcus aureus [2] was ≥ 32 µg/mL each time.
In the case of `CC[C@@H](C)[C@@H](NC(=O)[C@@H](CCC(N)=O)NC(=O)[C@H](CO)NC(=O)[C@@H](NC(=O)[C@@H](Cc1ccccc1)NC)[C@@H](C)CC)C(=O)N[C@H](C(=O)N[C@@H](CO)C(=O)N[C@H]1C(=O)N[C@@H](C)C(=O)N[C@@H](CC(N)=O)C(=O)N[C@@H]([C@@H](C)CC)C(=O)O[C@H]1C)[C@@H](C)CC`, the results for the MIC in the assay with Staphylococcus aureus [1] and with Staphylococcus aureus [2] were 16 µg/mL (≈ 13.3 µM) and 8 µg/mL (≈ 6.65 µM), respectively.
On to `CC[C@@H](C)[C@@H](NC(=O)[C@@H](CCC(N)=O)NC(=O)[C@H](CO)NC(=O)[C@@H](NC(=O)[C@@H](Cc1ccccc1)NC)[C@@H](C)CC)C(=O)N[C@H](C(=O)N[C@@H](CO)C(=O)N[C@H]1C(=O)N[C@@H](C)C(=O)N[C@@H](C)C(=O)N[C@@H]([C@@H](C)CC)C(=O)O[C@H]1C)[C@@H](C)CC`, for which the MIC against Staphylococcus aureus [1] came to 8 µg/mL (≈ 6.9 µM); in the assay on Staphylococcus aureus [2], 2 µg/mL (≈ 1.73 µM).
Turning to `CC[C@@H](C)[C@@H](NC(=O)[C@@H](CCC(N)=O)NC(=O)[C@H](CO)NC(=O)[C@@H](NC(=O)[C@@H](Cc1ccccc1)NC)[C@@H](C)CC)C(=O)N[C@H](C(=O)N[C@@H](CO)C(=O)N[C@H]1C(=O)N[C@@H](C)C(=O)N[C@@H](CC2CC2)C(=O)N[C@@H]([C@@H](C)CC)C(=O)O[C@H]1C)[C@@H](C)CC`, the minimal inhibitory concentration (MIC) against Staphylococcus aureus [1] was 2 µg/mL (≈ 1.67 µM); in the assay on Staphylococcus aureus [2] it was 0.5 µg/mL (≈ 0.417 µM).
In the same order, the values of `CC[C@@H](C)[C@@H](NC(=O)[C@@H](CCC(N)=O)NC(=O)[C@H](CO)NC(=O)[C@@H](NC(=O)[C@@H](Cc1ccccc1)NC)[C@@H](C)CC)C(=O)N[C@H](C(=O)N[C@@H](CO)C(=O)N[C@H]1C(=O)N[C@@H](C)C(=O)N[C@@H](Cc2ccc(Br)cc2)C(=O)N[C@@H]([C@@H](C)CC)C(=O)O[C@H]1C)[C@@H](C)CC` are ≥ 32 µg/mL and 2 µg/mL (≈ 1.52 µM).
For `CC[C@@H](C)[C@@H](NC(=O)[C@@H](CCC(N)=O)NC(=O)[C@H](CO)NC(=O)[C@@H](NC(=O)[C@@H](Cc1ccccc1)NC)[C@@H](C)CC)C(=O)N[C@H](C(=O)N[C@@H](CO)C(=O)N[C@H]1C(=O)N[C@@H](C)C(=O)N[C@@H](Cc2ccc(OC)cc2)C(=O)N[C@@H]([C@@H](C)CC)C(=O)O[C@H]1C)[C@@H](C)CC` the same measures were ≥ 32 µg/mL and 1 µg/mL (≈ 0.79 µM).
On to `CC[C@@H](C)[C@@H](NC(=O)[C@@H](CCC(N)=O)NC(=O)[C@H](CO)NC(=O)[C@@H](NC(=O)[C@@H](Cc1ccccc1)NC)[C@@H](C)CC)C(=O)N[C@H](C(=O)N[C@@H](CO)C(=O)N[C@H]1C(=O)N[C@@H](C)C(=O)N[C@@H](Cc2ccc(C)cc2)C(=O)N[C@@H]([C@@H](C)CC)C(=O)O[C@H]1C)[C@@H](C)CC`, for which the figures for the minimum inhibitory concentration (MIC) in the assay with Staphylococcus aureus [1] and in the assay on Staphylococcus aureus [2] were ≥ 32 µg/mL and 1 µg/mL (≈ 0.8 µM), respectively.
Turning to `CC[C@@H](C)[C@@H](NC(=O)[C@@H](CCC(N)=O)NC(=O)[C@H](CO)NC(=O)[C@@H](NC(=O)[C@@H](Cc1ccccc1)NC)[C@@H](C)CC)C(=O)N[C@H](C(=O)N[C@@H](CO)C(=O)N[C@H]1C(=O)N[C@@H](C)C(=O)N[C@@H](Cc2c[nH]c3ccccc23)C(=O)N[C@@H]([C@@H](C)CC)C(=O)O[C@H]1C)[C@@H](C)CC`, the minimum inhibitory concentration (MIC) against Staphylococcus aureus [1] was 8 to 16 µg/mL (≈ 6.28 to 12.6 µM); against Staphylococcus aureus [2] it was 8 µg/mL (≈ 6.28 µM).
On to `CC[C@@H](C)[C@@H](NC(=O)[C@@H](CCC(N)=O)NC(=O)[C@H](CO)NC(=O)[C@@H](NC(=O)[C@@H](Cc1ccccc1)NC)[C@@H](C)CC)C(=O)N[C@H](C(=O)N[C@@H](CO)C(=O)N[C@H]1C(=O)N[C@@H](C)C(=O)N[C@@H](Cc2ccccc2)C(=O)N[C@@H]([C@@H](C)CC)C(=O)O[C@H]1C)[C@@H](C)CC`, for which the MIC against Staphylococcus aureus [1] came to 4 µg/mL (≈ 3.24 µM); against Staphylococcus aureus [2], 1 µg/mL (≈ 0.809 µM).
With `CC[C@@H](C)[C@@H](NC(=O)[C@@H](CCC(N)=O)NC(=O)[C@H](CO)NC(=O)[C@@H](NC(=O)[C@@H](Cc1ccccc1)NC)[C@@H](C)CC)C(=O)N[C@H](C(=O)N[C@@H](CO)C(=O)N[C@H]1C(=O)N[C@@H](C)C(=O)N[C@H](CCCCN)C(=O)N[C@@H]([C@@H](C)CC)C(=O)O[C@H]1C)[C@@H](C)CC`, the MIC against Staphylococcus aureus [1] and with Staphylococcus aureus [2] was ≥ 32 µg/mL each time.
As to `CC[C@@H]1NC(=O)[C@H](C)NC(=O)[C@H](NC(=O)[C@H](CO)NC(=O)[C@@H](NC(=O)[C@H](NC(=O)[C@@H](CCC(N)=O)NC(=O)[C@H](CO)NC(=O)[C@@H](NC(=O)[C@@H](Cc2ccccc2)NC)[C@@H](C)CC)[C@H](C)CC)[C@@H](C)CC)[C@H](C)OC(=O)[C@H]([C@@H](C)CC)NC1=O`, the MIC with Staphylococcus aureus [1] worked out at 4 µg/mL (≈ 3.41 µM); against Staphylococcus aureus [2], 1 µg/mL (≈ 0.852 µM).

By MIC is commonly meant the smallest concentration in the dilution series that meets the test's criterion for growth inhibition. Low values mean greater potency, high ones weaker potency.
